In one experiment the target is T1, STAM-binding protein (Homo sapiens, UniProt O95630).
T1 sequence (O95630 whole entry): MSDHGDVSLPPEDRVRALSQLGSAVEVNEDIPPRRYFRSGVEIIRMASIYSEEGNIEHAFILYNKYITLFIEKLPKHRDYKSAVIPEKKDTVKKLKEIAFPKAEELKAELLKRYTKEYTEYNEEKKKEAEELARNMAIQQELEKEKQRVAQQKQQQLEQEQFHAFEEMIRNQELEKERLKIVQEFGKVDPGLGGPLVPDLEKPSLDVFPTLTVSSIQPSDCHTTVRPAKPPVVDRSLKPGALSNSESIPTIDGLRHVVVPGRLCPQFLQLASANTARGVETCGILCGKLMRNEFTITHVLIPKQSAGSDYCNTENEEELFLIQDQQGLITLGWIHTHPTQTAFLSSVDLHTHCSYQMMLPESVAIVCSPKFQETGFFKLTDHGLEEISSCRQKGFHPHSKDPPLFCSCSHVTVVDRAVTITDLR
The experiment in a line: Inhibition of human STAMBP expressed in Sf21 cells pre-incubated for 20 mins before Ubiquitinated NALP7 substrate addition and measured after 1 hr by immunoblotting analysis.

Experiment [1] has as its target Ubiquitin carboxyl-terminal hydrolase 7 (Homo sapiens, UniProt Q93009). In words: Inhibition of USP7 in human U2OS using Ub-TAMRA substrate by Ub-Rhodamine fluorescent intensity assay. In kind it is cell-based.
The target in experiment [2] is T2, Ubiquitin carboxyl-terminal hydrolase 4 (Homo sapiens, UniProt Q13107).
T2 sequence (Q13107 whole entry): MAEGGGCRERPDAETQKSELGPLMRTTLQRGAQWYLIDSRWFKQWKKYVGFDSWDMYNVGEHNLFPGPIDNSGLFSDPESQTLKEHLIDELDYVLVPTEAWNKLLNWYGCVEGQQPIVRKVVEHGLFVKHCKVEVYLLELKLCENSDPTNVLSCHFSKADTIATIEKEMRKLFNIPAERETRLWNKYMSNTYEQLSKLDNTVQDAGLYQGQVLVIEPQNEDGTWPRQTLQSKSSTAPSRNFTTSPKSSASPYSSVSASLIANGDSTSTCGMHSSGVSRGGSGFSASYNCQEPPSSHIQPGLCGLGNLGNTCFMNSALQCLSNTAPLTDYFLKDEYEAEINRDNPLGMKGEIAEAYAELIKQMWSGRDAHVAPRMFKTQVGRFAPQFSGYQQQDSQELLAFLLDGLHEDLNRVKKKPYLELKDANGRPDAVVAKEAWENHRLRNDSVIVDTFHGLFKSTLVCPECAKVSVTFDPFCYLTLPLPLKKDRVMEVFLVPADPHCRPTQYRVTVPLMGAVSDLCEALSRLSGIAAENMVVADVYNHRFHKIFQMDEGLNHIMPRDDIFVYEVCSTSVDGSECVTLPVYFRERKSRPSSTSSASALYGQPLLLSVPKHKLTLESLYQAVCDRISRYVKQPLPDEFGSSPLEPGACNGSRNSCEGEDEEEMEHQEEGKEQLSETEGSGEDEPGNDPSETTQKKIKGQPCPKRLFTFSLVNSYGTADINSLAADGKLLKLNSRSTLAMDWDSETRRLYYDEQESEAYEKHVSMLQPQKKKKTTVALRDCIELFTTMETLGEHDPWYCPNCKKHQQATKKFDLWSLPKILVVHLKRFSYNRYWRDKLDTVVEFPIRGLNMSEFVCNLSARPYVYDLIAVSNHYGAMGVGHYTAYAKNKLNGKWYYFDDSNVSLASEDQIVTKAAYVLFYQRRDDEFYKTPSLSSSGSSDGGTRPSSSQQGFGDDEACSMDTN
The experiment in a line: Inhibition of USP4 in human U2OS using Ub-TAMRA substrate by Ub-Rhodamine fluorescent intensity assay. In kind it is cell-based.

Experiment [3] in a line: Inhibition of 26S proteasome (unknown origin) incubated for 2 hrs by proteasome Ub-Rho cleavage assay. Also on record: species or system Homo sapiens.
For a further experiment, the system named is HCT-116. In words: Cytotoxicity in human HCT116 cells assessed as reduction in cell viability incubated for 72 hrs by FMCA analysis. It counts as functional, cell-based. Conditions: HCT-116, 72 h.

Each structure is given as a SMILES string.

The source of these data is ChEMBL document CHEMBL4354818, “Advances in Discovering Deubiquitinating Enzyme (DUB) Inhibitors” (J Med Chem, 2020).

Sequence of Ubiquitin carboxyl-terminal hydrolase 7 (Q93009 whole entry): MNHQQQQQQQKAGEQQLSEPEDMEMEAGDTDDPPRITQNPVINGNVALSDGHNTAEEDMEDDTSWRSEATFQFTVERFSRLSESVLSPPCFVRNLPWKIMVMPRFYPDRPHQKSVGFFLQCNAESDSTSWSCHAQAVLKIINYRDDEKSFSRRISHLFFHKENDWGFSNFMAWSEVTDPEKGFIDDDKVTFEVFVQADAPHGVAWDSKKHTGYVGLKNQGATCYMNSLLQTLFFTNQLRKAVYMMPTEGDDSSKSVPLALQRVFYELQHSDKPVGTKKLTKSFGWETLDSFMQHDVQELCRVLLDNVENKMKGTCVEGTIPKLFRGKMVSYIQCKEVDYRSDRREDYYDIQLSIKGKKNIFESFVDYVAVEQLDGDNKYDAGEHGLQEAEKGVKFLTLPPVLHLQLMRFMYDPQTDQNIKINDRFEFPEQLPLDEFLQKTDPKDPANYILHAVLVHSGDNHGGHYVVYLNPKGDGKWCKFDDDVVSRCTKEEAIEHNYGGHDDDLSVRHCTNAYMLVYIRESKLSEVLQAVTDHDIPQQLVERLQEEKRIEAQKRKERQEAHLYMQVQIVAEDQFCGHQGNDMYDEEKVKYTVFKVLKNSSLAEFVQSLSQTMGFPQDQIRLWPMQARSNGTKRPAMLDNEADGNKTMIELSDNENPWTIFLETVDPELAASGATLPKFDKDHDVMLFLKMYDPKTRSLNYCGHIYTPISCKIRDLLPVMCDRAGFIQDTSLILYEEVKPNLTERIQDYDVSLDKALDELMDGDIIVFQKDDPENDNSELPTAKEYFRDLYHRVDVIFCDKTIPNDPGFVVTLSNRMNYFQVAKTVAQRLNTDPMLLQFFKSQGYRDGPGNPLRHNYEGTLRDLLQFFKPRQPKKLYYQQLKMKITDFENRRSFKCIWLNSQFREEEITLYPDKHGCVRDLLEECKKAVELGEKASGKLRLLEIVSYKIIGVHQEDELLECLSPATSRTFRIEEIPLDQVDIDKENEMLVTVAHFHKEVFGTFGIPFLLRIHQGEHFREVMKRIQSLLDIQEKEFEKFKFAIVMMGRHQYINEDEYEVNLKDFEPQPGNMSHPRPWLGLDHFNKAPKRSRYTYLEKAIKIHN

Usually IC50 stands for the concentration that inhibits the measured activity by half. The low end stands for greater potency, the high end for weaker potency. `O=C(CSc1nc2ccc(N3CCOCC3)cc2c(=O)n1CCc1ccccc1)NCc1ccco1` came in with an IC50 on STAM-binding protein of 330 nM.
Consider `C#Cc1ccc(CNC(=O)c2cc(C(=O)CCl)cn2C)cc1`, for which the results for the IC50 in experiment [1] and in experiment [2] were 44000 nM and 50 nM, respectively.
In general, EC50 refers to the midpoint of the concentration-response curve. As to `C=CC(=O)N1C/C(=C\c2ccc([N+](=O)[O-])cc2)C(=O)/C(=C/c2ccc([N+](=O)[O-])cc2)C1`, the concentration giving a half-maximal response (EC50) in experiment [3] is 6500 nM; in the experiment with HCT-116 it was 1050 nM.
Consider `C=CC(=O)N1CC/C(=C\c2ccc(F)c([N+](=O)[O-])c2)C(=O)/C(=C/c2ccc(F)c([N+](=O)[O-])c2)C1`, for which the concentration for a half-maximal effect (EC50) in experiment [3] was 6400 nM; in the experiment on HCT-116, 580 nM.
